Assay [1] has as its system DLD1 WT cells. The assay can be described thus: DLD1 viability assay (CellTiter-Glo, 7 days), DLD1 WT. It counts as cell-based. The following applies: Homo sapiens, DLD-1, 168 h. How it is done:
(§1) The seeding densities are pre-determined from the growth curve kinetics performed to ensure log linear phase of cell growth for these 2 cell lines. These assay plates are then placed in the incubator at 37° C., 5% CO2, relative humidity>90% for a few hours before addition of test compounds. Compounds are dispensed using the Tecan HPD300 or Echo based on the plate map in the appropriate wells of the 384-well plates. […] After addition of the test compounds, the plates are incubated at 37° C., 5% CO2, relative humidity>90% for 7 days. CellTiter-Glo (Promega Cat. No. G7573), ATP detection reagent is prepared according to manufacturer's specifications. Cell assay plates are removed from incubator and bring to room temperature (RT) by letting them sit at bench top for at least 15 min. Using the MultiDrop liquid handler or a multichannel pipette, 35 μL/well of CTG is added and the plates are then placed shakes for 5 seconds, RT. These plates are then incubated for 30 minutes in the dark at RT before measuring luminescence using Spectramax/Enspire/Ensight/Envision/PheraSTAR.

Assay [2] has as its system DLD1 BRCA2 (−/−) cells. Nature of the assay: DLD1 viability assay (CellTiter-Glo, 7 days), DLD1 BRCA2 (−/−). It counts as cell-based. The following applies: Homo sapiens, DLD-1, 168 h, read-out: Viability IC50 (μM) DLD1 BRCA2 null. Here is the method:
as §1

Each structure is given as a SMILES string.

Take `COc1cnc(Cl)cc1-c1cc(C)ncc1C(=O)Nc1nc2ncc(N3CCC(OC4CC4)CC3)nc2s1` [Example 462, 2′-chloro-N-(6-(4-cyclopropoxypiperidin-1-yl)thiazolo[4,5-b]pyrazin-2-yl)-5′-methoxy-6-methyl-[4,4′-bipyridine]-3-carboxamide]: the IC50 in assay [1] is above 10 µM; in assay [2], 0.001 to 0.1 µM.

On to `COc1cnc(Cl)cc1-c1cc(C)ncc1C(=O)Nc1nc2ncc(N3CCC(C4COC4)CC3)nc2s1` [Example 464, 2′-chloro-5′-methoxy-6-methyl-N-(6-(4-(oxetan-3-yl)piperidin-1-yl)thiazolo[4,5-b]pyrazin-2-yl)-[4,4′-bipyridine]-3-carboxamide], for which the IC50 in assay [1] is above 10 µM; in assay [2] it was 0.001 to 0.1 µM.

Take `COc1cnc(Cl)cc1-c1cc(C)ncc1C(=O)Nc1nc2ncc(N3CCC(C)(O)C(F)C3)nc2s1` (centres unmarked) [Example 465, 2′-chloro-N-(6-(3-fluoro-4-hydroxy-4-methylpiperidin-1-yl)thiazolo[4,5-b]pyrazin-2-yl)-5′-methoxy-6-methyl-[4,4′-bipyridine]-3-carboxamide]: the concentration for half-maximal inhibition (IC50) in assay [1] is above 10 µM; in assay [2], 0.001 to 0.1 µM.

For `COc1cnc(Cl)cc1-c1cc(C)ncc1C(=O)Nc1nc2ncc(N3CCC(C4CC4)CC3)nc2s1` [Example 466, 2′-chloro-N-(6-(4-cyclopropylpiperidin-1-yl)thiazolo[4,5-b]pyrazin-2-yl)-5′-methoxy-6-methyl-[4,4′-bipyridine]-3-carboxamide], the IC50 in assay [1] lay in the range of 7.5 to 10 µM; in assay [2] it was 0.001 to 0.1 µM.

Regarding `COc1cnc(Cl)cc1-c1cc(C)ncc1C(=O)Nc1nc2ncc(N3CCC(CC#N)CC3)nc2s1` [Example 467, 2′-chloro-N-(6-(4-(cyanomethyl)piperidin-1-yl)thiazolo[4,5-b]pyrazin-2-yl)-5′-methoxy-6-methyl-[4,4′-bipyridine]-3-carboxamide], the IC50 in assay [1] is above 10 µM; in assay [2], 0.001 to 0.1 µM.

`COc1cnc(Cl)cc1-c1cc(C)ncc1C(=O)Nc1nc2ncc(N3CCC(C(C)(C)C#N)CC3)nc2s1` [Example 468, 2′-chloro-N-(6-(4-(2-cyanopropan-2-yl)piperidin-1-yl)thiazolo[4,5-b]pyrazin-2-yl)-5′-methoxy-6-methyl-[4,4′-bipyridine]-3-carboxamide]: the IC50 in assay [1] is 5 to 7.5 µM; in assay [2], 0.001 to 0.1 µM.

Turning to `COc1cnc(Cl)cc1-c1cc(C)ncc1C(=O)Nc1nc2ncc(N3CCN(CC(F)(F)F)CC3)nc2s1` [Example 471, 2′-chloro-5′-methoxy-6-methyl-N-(6-(4-(2,2,2-trifluoroethyl)piperazin-1-yl)thiazolo[4,5-b]pyrazin-2-yl)-[4,4′-bipyridine]-3-carboxamide], the half-inhibitory concentration (IC50) in assay [1] is above 10 µM; in assay [2] it was 0.001 to 0.1 µM.

Take `COc1cnc(Cl)cc1-c1cc(C)ncc1C(=O)Nc1nc2ncc(N3CCC(C(F)(F)F)CC3)nc2s1` [Example 472, 2′-chloro-5′-methoxy-6-methyl-N-(6-(4-(trifluoromethyl)piperidin-1-yl)thiazolo[4,5-b]pyrazin-2-yl)-[4,4′-bipyridine]-3-carboxamide]: the concentration for half-maximal inhibition (IC50) in assay [1] is 5 to 7.5 µM; in assay [2], 0.001 to 0.1 µM.

As for `COc1cnc(Cl)cc1-c1cc(C)ncc1C(=O)Nc1nc2ncc(N3CCC(C)CC3)nc2s1` [Example 474, 2′-chloro-5′-methoxy-6-methyl-N-(6-(4-methylpiperidin-1-yl)thiazolo[4,5-b]pyrazin-2-yl)-[4,4′-bipyridine]-3-carboxamide], the IC50 is 7.5 to 10 µM in assay [1] and 0.001 to 0.1 µM in assay [2].

Consider `COc1cnc(Cl)cc1-c1cc(C)ncc1C(=O)Nc1nc2ncc(N3CCC(C#N)CC3)nc2s1` [Example 475, 2′-chloro-N-(6-(4-cyanopiperidin-1-yl)thiazolo[4,5-b]pyrazin-2-yl)-5′-methoxy-6-methyl-[4,4′-bipyridine]-3-carboxamide], for which the concentration for half-maximal inhibition (IC50) in assay [1] was above 10 µM; in assay [2], 0.001 to 0.1 µM.

For `COc1cnc(Cl)cc1-c1cc(C)ncc1C(=O)Nc1nc2ncc(N3CCC(C(C)(C)O)CC3)nc2s1` [Example 480, 2′-chloro-N-(6-(4-(2-hydroxypropan-2-yl)piperidin-1-yl)thiazolo[4,5-b]pyrazin-2-yl)-5′-methoxy-6-methyl-[4,4′-bipyridine]-3-carboxamide], the IC50 in assay [1] was above 10 µM; in assay [2], 0.001 to 0.1 µM.

As to `COc1cnc(Cl)cc1-c1cc(C)ncc1C(=O)Nc1nc2ncc(N3CCC[C@H](C)C3)nc2s1` [Example 481, (S)-2′-chloro-5′-methoxy-6-methyl-N-(6-(3-methylpiperidin-1-yl)thiazolo[4,5-b]pyrazin-2-yl)-[4,4′-bipyridine]-3-carboxamide], the IC50 in assay [1] was in the range of 7.5 to 10 µM; in assay [2], 0.25 to 0.5 µM.

`COc1cnc(Cl)cc1-c1cc(C)ncc1C(=O)Nc1nc2ncc(N3CCC4(CCO4)CC3)nc2s1` [Example 482, N-(6-(1-oxa-7-azaspiro[3.5]nonan-7-yl)thiazolo[4,5-b]pyrazin-2-yl)-2′-chloro-5′-methoxy-6-methyl-[4,4′-bipyridine]-3-carboxamide]: the results for the IC50 in assay [1] and in assay [2] were above 10 µM and 0.001 to 0.1 µM, respectively.

As to `COc1cnc(Cl)cc1-c1cc(C)ncc1C(=O)Nc1nc2ncc(N3CCOCC3)nc2s1` [Example 483, 2′-chloro-5′-methoxy-6-methyl-N-(6-morpholinothiazolo[4,5-b]pyrazin-2-yl)-[4,4′-bipyridine]-3-carboxamide], the values for the IC50 in assay [1] and in assay [2] were above 10 µM and 0.1 to 0.25 µM, respectively.

Regarding `COc1cnc(Cl)cc1-c1cc(C)ncc1C(=O)Nc1nc2ncc(N3CCC[C@@H](C)C3)nc2s1` [Example 485, (R)-2′-chloro-5′-methoxy-6-methyl-N-(6-(3-methylpiperidin-1-yl)thiazolo[4,5-b]pyrazin-2-yl)-[4,4′-bipyridine]-3-carboxamide], the IC50 in assay [1] is above 10 µM; in assay [2], 0.1 to 0.25 µM.

For the molecule `COc1cnc(Cl)cc1-c1cc(C)ncc1C(=O)Nc1nc2ncc(N3CCC(C(F)F)CC3)nc2s1` [Example 486, 2′-chloro-N-(6-(4-(difluoromethyl)piperidin-1-yl)thiazolo[4,5-b]pyrazin-2-yl)-5′-methoxy-6-methyl-[4,4′-bipyridine]-3-carboxamide], the IC50 in assay [1] is above 10 µM; in assay [2] it was 0.001 to 0.1 µM.

For `COc1cnc(Cl)cc1-c1cc(C)ncc1C(=O)Nc1nc2ncc(N3CCC3)nc2s1` [Example 487, N-(6-(azetidin-1-yl)thiazolo[4,5-b]pyrazin-2-yl)-2′-chloro-5′-methoxy-6-methyl-[4,4′-bipyridine]-3-carboxamide], the half-maximal inhibitory concentration (IC50) is above 10 µM in assay [1] and 0.001 to 0.1 µM in assay [2].

For the molecule `COc1cnc(Cl)cc1-c1cc(C)ncc1C(=O)Nc1nc2ncc(N3CCO[C@H](C)C3)nc2s1` [Example 488, (R)-2′-chloro-5′-methoxy-6-methyl-N-(6-(2-methylmorpholino)thiazolo[4,5-b]pyrazin-2-yl)-[4,4′-bipyridine]-3-carboxamide], the concentration for half-maximal inhibition (IC50) was above 10 µM in assay [1] and 0.001 to 0.1 µM in assay [2].

Take `COc1cnc(Cl)cc1-c1cc(C)ncc1C(=O)Nc1nc2ncc(N3CCC(OC(F)(F)F)CC3)nc2s1` [Example 489, 2′-chloro-5′-methoxy-6-methyl-N-(6-(4-(trifluoromethoxy)piperidin-1-yl)thiazolo[4,5-b]pyrazin-2-yl)-[4,4′-bipyridine]-3-carboxamide]: the IC50 in assay [1] was above 10 µM; in assay [2], 0.001 to 0.1 µM.
